The text below walks through data of patent publication US7659245B2, “Macrocylic inhibitors of hepatitis C virus” (Tibotec Pharmaceuticals Ltd, priority 2005, dated 2010).

Read-outs that look alike come from different tables or passages of the source.

The conditions of data set [1]: rcm bond, 14-membered ring, Hoveyda-Grubbs II, DCE.
For data set [2] the following is noted: rcm bond; 14-membered ring; Hoveyda-Grubbs II; DCE; 1.45 mM; 90.0 °C.

In data set [1] (from 4-(2-Phenyl-quinazolin-4-yloxy)-cyclopentane-1,2-dicarboxylic acid 1-[(1 cyclo-propanesulfonecarbonyl-2-vinylcyclopropyl)-amide]2-(hex-5-enylmethylamide), 1.72 mM, 150.0 °C), `CN1CCCCC=CC2CC2(C(=O)NS(=O)(=O)C2CC2)NC(=O)C2CC(Oc3nc(-c4ccccc4)nc4ccccc34)CC2C1=O` (centres unmarked) yielded a ring closure, yield after HPLC of 29%.
In the case of `CN1CCCCC=CC2CC2(C(=O)NS(=O)(=O)C2CC2)NC(=O)C2CC(Oc3nc(N4CCOCC4)nc4ccccc34)CC2C1=O` (centres unmarked), in data set [1] (from 4-(2-Morpholin-4-yl-quinazolin-4-yloxy)-cyclopentane-1,2-dicarboxylic acid 1-[(1-cyclopropanesulfonylaminocarbonyl-2-vinyl-cyclopropyl)-amide]2-(hex-5-enyl-methyl-amide), 1.63 mM, 150.0 °C), the ring closure, yield after HPLC came out at 56%.
In data set [1] (from 4-[2-(4-Methyl-piperazin-1-yl)-quinazolin-4-yloxy]-cyclopentane-1,2-dicarboxylic acid 1-[(1-cyclopropanesulfonylaminocarbonyl-2-vinyl-cyclopropyl)amide]2-(hex-5-enyl-methyl-amide), 1.61 mM, 150.0 °C), `CN1CCN(c2nc(OC3CC4C(=O)NC5(C(=O)NS(=O)(=O)C6CC6)CC5C=CCCCCN(C)C(=O)C4C3)c3ccccc3n2)CC1` (centres unmarked) yielded a ring closure, yield after HPLC of 22%.
“17-[2-(4-Isopropyl-thiazol-2-yl)-7-methoxy-quinazolin-4-yloxy]-13-methyl-2,14-dioxo-3,13-diaza-tricyclo[13.3.0.0*4,6*]octadec-7-ene-4-carboylic acid ethyl ester” registered a ring closure, isolated yield in data set [2] of 46%.
In turn, “Cyclopropanesulfonic acid {17-[2-(4-isopropyl-thiazol-2-yl)-quinazolin-4-yloxy-]-13-methyl-2,14-dioxo-3,13-diaza-tricyclo[13.3.0.0*4,6*]octadec-7-ene-4-carbonyl}-amide” displayed a ring closure, yield after HPLC in data set [1] (1.67 mM, 15.0 °C) of 64%.
